According to patent US10294202B2, “Pyrrolidinones as herbicides” (FMC Corporation, priority 2013, dated 2019):

Experiments:
oat, wild = test: Test C pre-/postemergence herbicide test; assay type: in vivo, Avena fatua; conditions: Postemergence
Summary of the method: (§1)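 Compound solutions contained surfactant in a non-phytotoxic solvent. These were sprayed onto pots of loam/sand sown with seeds, and onto young plants (2 to 18 cm, 1- to 4-leaf) in sphagnum peat–vermiculite mix. Visual injury scores (0 none, 100 complete control) were recorded after 13 to 15 days.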

ragweed = test: Test C pre-/postemergence herbicide test; assay type: in vivo, Ambrosia elatior
Summary of the method: as §1

ryegrass, Italian = test: Test A pre-/postemergence herbicide test; assay type: in vivo, Lolium multiflorum
Summary of the method: (§2)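 Formulated compound (non-phytotoxic solvent, surfactant) sprayed pre- onto soil of seeded loam/sand pots or post- onto seedlings at 1–2 leaves; ~10 d greenhouse; 0–100 visual control rating versus untreated.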

nutsedge, yellow = test: Test C pre-/postemergence herbicide test; assay type: in vivo, Cyperus esculentus
Summary of the method: as §1

corn = test: Test C pre-/postemergence herbicide test; assay type: in vivo, Zea mays
Summary of the method: as §1

kochia = test: Test C pre-/postemergence herbicide test; assay type: in vivo, Kochia scoparia; conditions: Postemergence
Summary of the method: as §1

barnyardgrass = test: Test A pre-/postemergence herbicide test; assay type: in vivo, Echinochloa crus-galli
Summary of the method: as §2

pigweed = test: Test A pre-/postemergence herbicide test; assay type: in vivo, Amaranthus retroflexus
Summary of the method: as §2

chickweed = test: Test C postemergence herbicide test; assay type: in vivo, Stellaria media
Summary of the method: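 Response is scored visually on a 0–100 scale (100 = complete control) relative to untreated controls, 13 to 15 days after treatment. Plants were sprayed postemergence at the 1- to 4-leaf stage (2 to 18 cm tall) and kept in a greenhouse.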

[1] = 8 g ai/ha, scale 0 to 100 (0 no effect, 100 complete control)
[2] = 16 g ai/ha, scale 0 to 100 (0 no effect, 100 complete control)
[3] = 31 g ai/ha, scale 0 to 100 (0 no effect, 100 complete control)
[4] = 62 g ai/ha, scale 0 (no effect) to 100 (complete control)
[5] = Postemergence, 8 g ai/ha, scale 0 to 100 (0 no effect, 100 complete control)
[6] = Postemergence, 16 g ai/ha, scale 0 to 100 (0 no effect, 100 complete control)
[7] = Postemergence, 31 g ai/ha, scale 0 to 100 (0 no effect, 100 complete control)
[8] = Postemergence, 62 g ai/ha, scale 0 (no effect) to 100 (complete control)
[9] = Preemergence, 31 g ai/ha, scale 0 to 100, 0 is no effect and 100 is complete control
[10] = Preemergence, 62 g ai/ha, scale 0 to 100 (0 no effect, 100 complete control)
[11] = Preemergence, 8 g ai/ha, scale 0 to 100
[12] = Preemergence, 16 g ai/ha, scale 0 to 100
[13] = Postemergence, 125 g ai/ha, visual rating on 0 to 100 scale (0 no effect, 100 complete control), approx. 10 days
[14] = Postemergence, 500 g ai/ha, 0 to 100 scale (0 no effect, 100 complete control)
[15] = Preemergence, 125 g ai/ha, 0 to 100 scale where 0 is no effect and 100 is complete control
[16] = preemergence, 500 g ai/ha, 0 to 100 scale, 0 is no effect and 100 is complete control

CN1CC(c2ccc(F)cc2)C(C(=O)Nc2cccc(F)c2F)C1=O (stereo not drawn) [Compound 271]
Plant response rating, Oat, Wild (oat, wild; [1]): 0
Plant response rating, Oat, Wild (oat, wild; [2]): 0
Plant response rating, Oat, Wild (oat, wild; [3]): 0
Plant response rating, Oat, Wild (oat, wild; [4]): 0
Plant response rating, Ragweed (ragweed; [5]): 0
Plant response rating, Ragweed (ragweed; [6]): 15
Plant response rating, Ragweed (ragweed; [7]): 25
Plant response rating, Ragweed (ragweed; [8]): 40
Ragweed plant response rating (ragweed; [9]): 0
Ragweed plant response rating (ragweed; [10]): 10
Plant response rating, Ragweed (ragweed; [11]): 0
Plant response rating, Ragweed (ragweed; [12]): 0
Plant response rating, Ryegrass, Italian (ryegrass, Italian; [13]): 0
Plant response rating, Ryegrass, Italian (ryegrass, Italian; [14]): 40
Plant response rating, Ryegrass, Italian (ryegrass, Italian; [15]): 0
Plant response rating, Ryegrass, Italian (ryegrass, Italian; [16]): 30
Plant response rating, Nutsedge, Yellow (nutsedge, yellow; [5]): 0
Plant response rating, Nutsedge, Yellow (nutsedge, yellow; [6]): 0
Plant response rating, Nutsedge, Yellow (nutsedge, yellow; [7]): 0
Plant response rating, Nutsedge, Yellow (nutsedge, yellow; [8]): 0
Nutsedge, Yellow plant response rating (nutsedge, yellow; [9]): 0
Nutsedge, Yellow plant response rating (nutsedge, yellow; [10]): 0
Plant response rating, Nutsedge, Yellow (nutsedge, yellow; [11]): 0
Plant response rating, Nutsedge, Yellow (nutsedge, yellow; [12]): 0
Plant response rating, Corn (corn; [5]): 0
Plant response rating, Corn (corn; [6]): 0
Plant response rating, Corn (corn; [7]): 0
Plant response rating, Corn (corn; [8]): 0
Corn plant response rating (corn; [9]): 0
Corn plant response rating (corn; [10]): 0
Plant response rating, Corn (corn; [11]): 0
Plant response rating, Corn (corn; [12]): 0
Plant response rating, Kochia (kochia; [1]): 0
Plant response rating, Kochia (kochia; [2]): 0
Plant response rating, Kochia (kochia; [3]): 0
Plant response rating, Kochia (kochia; [4]): 10
Plant response rating, Barnyardgrass (barnyardgrass; Postemergence, 125 g ai/ha, 0 to 100 scale, 0 is no effect, 100 is complete control): 90
Plant response rating, Barnyardgrass (barnyardgrass; [14]): 90
Plant response rating, Barnyardgrass (barnyardgrass; [15]): 90
Plant response rating, Barnyardgrass (barnyardgrass; [16]): 90
Plant response rating, Pigweed (pigweed; [13]): 0
Plant response rating, Pigweed (pigweed; [14]): 20
Plant response rating, Pigweed (pigweed; [15]): 40
Plant response rating, Pigweed (pigweed; [16]): 80
Plant response rating, Chickweed (chickweed; [1]): 0
Plant response rating, Chickweed (chickweed; [2]): 5
Plant response rating, Chickweed (chickweed; [3]): 5
Plant response rating, Chickweed (chickweed; [4]): 50
